Assay results as given in US11981658B2, “Substituted aminopyridine compounds as EGFR inhibitors” (YUHAN CORPORATION, priority 2021, dated 2024).
Where two headings read alike, the source gives them in different places.

Tests used:
EGFR L858R/T790M/C797S = EGFR L858R/T790M/C797S (Homo sapiens, UniProt P00533, C797S/L858R/T790M); assay: Biochemical EGFR kinase inhibition assay (Lance Ultra TR-FRET), triple mutant L858R/T790M/C797S
Procedure, shortened: (§1)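 Enzyme reactions lasted 1 hour at room temperature with test compounds between 0.003 and 10 μM, followed by 10 mM EDTA quench.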

EGFR L858R/C797S = EGFR L858R/C797S (Homo sapiens, UniProt P00533, C797S/L858R); assay: Biochemical EGFR kinase inhibition assay (Lance Ultra TR-FRET), double mutant L858R/C797S
Procedure, shortened: as §1

EGFR Del19/T790M/C797S = EGFR Del19/T790M/C797S (Homo sapiens, UniProt P00533, C797S/DEL746-750/T790M); assay: Biochemical EGFR kinase inhibition assay (Lance Ultra TR-FRET), triple mutant del19/T790M/C797S
Procedure, shortened: as §1

EGFR Del19/C797S = EGFR Del19/C797S (Homo sapiens, UniProt P00533, C797S/DEL746-750); assay: Biochemical EGFR kinase inhibition assay (Lance Ultra TR-FRET), double mutant del19/C797S
Procedure, shortened: as §1

EGFR wildtype (WT) = EGFR wildtype (WT) (Homo sapiens, UniProt P00533); assay: Biochemical EGFR kinase inhibition assay (Lance Ultra TR-FRET), wildtype
Procedure, shortened: as §1

[1] = IC50 L858R/T790M/C797S (nM), 100 μM ATP
[2] = IC50 L858R/C797S (nM), 100 μM ATP
[3] = IC50 Del19/T790M/C797S (nM), 100 μM ATP
[4] = IC50 Del19/C797S (nM), 100 μM ATP
[5] = Km ATP, read-out: IC50 L858R/T790M/C797S (nM) Km ATP
[6] = Km ATP, read-out: IC50 L858R/C797S (nM) Km ATP
[7] = Km ATP, read-out: IC50 Del19/T790M/C797S (nM) Km ATP
[8] = Km ATP, read-out: IC50 Del19/C797S (nM) Km ATP
[9] = Km ATP, read-out: IC50 WT (nM) Km ATP
[10] = ATP at Km, read-out: IC50 L858R/T790M/C797S (nM), Km ATP
[11] = ATP at Km, read-out: IC50 L858R/C797S (nM), Km ATP
[12] = ATP at Km, read-out: IC50 Del19/T790M/C797S (nM), Km ATP
[13] = ATP at Km, read-out: IC50 Del19/C797S (nM), Km ATP
[14] = ATP at Km, read-out: IC50 WT (nM), Km ATP

EGFR wildtype (WT), sequence (P00533 25-1210): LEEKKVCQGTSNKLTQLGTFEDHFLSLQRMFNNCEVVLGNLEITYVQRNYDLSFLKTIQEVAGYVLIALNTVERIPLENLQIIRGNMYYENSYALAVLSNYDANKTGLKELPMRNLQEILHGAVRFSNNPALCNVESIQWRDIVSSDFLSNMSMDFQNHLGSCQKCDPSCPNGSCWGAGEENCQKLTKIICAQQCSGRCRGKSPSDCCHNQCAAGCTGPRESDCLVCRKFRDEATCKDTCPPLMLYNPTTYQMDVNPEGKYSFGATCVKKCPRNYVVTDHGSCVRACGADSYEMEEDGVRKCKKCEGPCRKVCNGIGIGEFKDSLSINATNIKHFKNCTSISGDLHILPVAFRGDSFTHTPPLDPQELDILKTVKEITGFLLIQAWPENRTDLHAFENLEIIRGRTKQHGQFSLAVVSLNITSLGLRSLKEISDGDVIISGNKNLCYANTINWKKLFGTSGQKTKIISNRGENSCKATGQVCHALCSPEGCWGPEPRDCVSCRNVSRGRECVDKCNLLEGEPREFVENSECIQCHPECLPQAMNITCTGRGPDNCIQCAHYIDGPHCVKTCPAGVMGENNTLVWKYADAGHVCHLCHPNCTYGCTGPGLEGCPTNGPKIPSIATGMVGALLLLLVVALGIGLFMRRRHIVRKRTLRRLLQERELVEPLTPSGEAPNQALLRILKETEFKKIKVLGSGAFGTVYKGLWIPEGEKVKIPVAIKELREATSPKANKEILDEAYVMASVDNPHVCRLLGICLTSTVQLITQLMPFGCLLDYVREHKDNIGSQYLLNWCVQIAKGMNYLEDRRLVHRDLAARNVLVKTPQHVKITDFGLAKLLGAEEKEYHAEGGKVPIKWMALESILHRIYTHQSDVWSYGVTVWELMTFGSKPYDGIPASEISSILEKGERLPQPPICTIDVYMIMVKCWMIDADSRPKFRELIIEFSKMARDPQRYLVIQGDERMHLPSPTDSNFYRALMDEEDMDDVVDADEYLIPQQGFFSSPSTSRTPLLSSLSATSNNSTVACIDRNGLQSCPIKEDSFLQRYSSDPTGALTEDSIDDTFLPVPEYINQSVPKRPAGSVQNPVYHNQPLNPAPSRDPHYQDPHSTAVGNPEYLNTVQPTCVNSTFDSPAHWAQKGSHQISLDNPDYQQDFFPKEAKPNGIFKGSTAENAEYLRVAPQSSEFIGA
EGFR L858R/T790M/C797S, sequence (P00533 25-1210 T790M/C797S/L858R): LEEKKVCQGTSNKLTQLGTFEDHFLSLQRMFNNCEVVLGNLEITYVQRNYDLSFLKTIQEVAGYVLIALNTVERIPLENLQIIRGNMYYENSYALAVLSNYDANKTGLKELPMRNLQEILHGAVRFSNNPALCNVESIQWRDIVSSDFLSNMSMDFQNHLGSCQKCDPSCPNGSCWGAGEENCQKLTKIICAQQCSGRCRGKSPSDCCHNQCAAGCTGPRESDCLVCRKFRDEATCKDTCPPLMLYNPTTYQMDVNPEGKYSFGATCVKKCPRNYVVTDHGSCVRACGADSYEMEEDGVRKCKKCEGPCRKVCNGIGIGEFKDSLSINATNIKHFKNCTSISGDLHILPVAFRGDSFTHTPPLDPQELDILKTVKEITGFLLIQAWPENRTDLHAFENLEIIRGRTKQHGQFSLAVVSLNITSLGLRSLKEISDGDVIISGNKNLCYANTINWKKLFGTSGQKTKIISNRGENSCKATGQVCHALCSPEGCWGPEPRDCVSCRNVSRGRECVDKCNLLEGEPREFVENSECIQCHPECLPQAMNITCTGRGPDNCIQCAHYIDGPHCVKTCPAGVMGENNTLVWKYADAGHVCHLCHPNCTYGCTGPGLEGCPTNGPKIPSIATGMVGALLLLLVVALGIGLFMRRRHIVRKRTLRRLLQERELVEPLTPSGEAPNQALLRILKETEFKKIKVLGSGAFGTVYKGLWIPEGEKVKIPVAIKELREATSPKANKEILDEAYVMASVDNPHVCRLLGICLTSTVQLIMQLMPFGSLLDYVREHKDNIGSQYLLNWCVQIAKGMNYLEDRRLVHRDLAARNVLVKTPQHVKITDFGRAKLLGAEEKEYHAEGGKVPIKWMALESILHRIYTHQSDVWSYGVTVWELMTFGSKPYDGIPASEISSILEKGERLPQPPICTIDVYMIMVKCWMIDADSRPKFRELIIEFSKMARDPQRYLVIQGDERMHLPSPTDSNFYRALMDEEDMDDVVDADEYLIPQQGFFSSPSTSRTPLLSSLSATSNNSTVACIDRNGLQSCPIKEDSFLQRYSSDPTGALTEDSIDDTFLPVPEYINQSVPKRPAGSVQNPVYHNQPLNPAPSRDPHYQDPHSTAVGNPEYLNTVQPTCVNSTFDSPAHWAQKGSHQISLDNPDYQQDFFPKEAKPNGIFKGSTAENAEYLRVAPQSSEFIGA
EGFR Del19/T790M/C797S, sequence (P00533 with tags, fused parts or gaps DEL746-750/T790M/C797S): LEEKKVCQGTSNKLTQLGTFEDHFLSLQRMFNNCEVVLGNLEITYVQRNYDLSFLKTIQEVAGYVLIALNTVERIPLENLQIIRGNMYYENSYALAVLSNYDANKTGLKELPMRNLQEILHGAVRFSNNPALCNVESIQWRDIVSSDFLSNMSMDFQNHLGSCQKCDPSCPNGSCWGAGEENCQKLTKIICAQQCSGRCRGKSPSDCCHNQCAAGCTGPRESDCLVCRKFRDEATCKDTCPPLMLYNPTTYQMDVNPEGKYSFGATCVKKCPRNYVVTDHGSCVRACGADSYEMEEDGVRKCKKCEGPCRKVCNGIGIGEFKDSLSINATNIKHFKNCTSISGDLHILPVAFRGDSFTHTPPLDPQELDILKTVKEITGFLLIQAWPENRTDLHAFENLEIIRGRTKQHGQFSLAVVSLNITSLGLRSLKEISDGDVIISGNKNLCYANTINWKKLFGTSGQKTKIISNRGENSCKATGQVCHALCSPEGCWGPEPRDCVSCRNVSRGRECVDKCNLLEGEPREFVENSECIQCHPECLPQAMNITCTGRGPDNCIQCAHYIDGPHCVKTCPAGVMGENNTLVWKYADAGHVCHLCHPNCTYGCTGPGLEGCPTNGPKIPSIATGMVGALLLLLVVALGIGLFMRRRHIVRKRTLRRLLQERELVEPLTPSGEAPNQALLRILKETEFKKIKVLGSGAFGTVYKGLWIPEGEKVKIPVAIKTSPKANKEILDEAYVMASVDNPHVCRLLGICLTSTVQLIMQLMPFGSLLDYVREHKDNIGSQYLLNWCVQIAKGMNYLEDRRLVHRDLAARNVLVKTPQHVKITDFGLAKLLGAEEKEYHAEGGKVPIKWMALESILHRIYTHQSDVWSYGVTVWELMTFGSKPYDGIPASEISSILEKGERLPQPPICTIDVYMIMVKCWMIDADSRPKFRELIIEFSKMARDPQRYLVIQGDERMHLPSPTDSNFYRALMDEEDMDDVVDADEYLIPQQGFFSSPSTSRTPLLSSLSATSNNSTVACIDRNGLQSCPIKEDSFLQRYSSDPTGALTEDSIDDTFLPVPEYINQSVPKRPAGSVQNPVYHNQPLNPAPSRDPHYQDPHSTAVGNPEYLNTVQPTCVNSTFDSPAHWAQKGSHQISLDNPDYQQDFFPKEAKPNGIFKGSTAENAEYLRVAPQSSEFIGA
EGFR L858R/C797S, sequence (P00533 25-1210 C797S/L858R): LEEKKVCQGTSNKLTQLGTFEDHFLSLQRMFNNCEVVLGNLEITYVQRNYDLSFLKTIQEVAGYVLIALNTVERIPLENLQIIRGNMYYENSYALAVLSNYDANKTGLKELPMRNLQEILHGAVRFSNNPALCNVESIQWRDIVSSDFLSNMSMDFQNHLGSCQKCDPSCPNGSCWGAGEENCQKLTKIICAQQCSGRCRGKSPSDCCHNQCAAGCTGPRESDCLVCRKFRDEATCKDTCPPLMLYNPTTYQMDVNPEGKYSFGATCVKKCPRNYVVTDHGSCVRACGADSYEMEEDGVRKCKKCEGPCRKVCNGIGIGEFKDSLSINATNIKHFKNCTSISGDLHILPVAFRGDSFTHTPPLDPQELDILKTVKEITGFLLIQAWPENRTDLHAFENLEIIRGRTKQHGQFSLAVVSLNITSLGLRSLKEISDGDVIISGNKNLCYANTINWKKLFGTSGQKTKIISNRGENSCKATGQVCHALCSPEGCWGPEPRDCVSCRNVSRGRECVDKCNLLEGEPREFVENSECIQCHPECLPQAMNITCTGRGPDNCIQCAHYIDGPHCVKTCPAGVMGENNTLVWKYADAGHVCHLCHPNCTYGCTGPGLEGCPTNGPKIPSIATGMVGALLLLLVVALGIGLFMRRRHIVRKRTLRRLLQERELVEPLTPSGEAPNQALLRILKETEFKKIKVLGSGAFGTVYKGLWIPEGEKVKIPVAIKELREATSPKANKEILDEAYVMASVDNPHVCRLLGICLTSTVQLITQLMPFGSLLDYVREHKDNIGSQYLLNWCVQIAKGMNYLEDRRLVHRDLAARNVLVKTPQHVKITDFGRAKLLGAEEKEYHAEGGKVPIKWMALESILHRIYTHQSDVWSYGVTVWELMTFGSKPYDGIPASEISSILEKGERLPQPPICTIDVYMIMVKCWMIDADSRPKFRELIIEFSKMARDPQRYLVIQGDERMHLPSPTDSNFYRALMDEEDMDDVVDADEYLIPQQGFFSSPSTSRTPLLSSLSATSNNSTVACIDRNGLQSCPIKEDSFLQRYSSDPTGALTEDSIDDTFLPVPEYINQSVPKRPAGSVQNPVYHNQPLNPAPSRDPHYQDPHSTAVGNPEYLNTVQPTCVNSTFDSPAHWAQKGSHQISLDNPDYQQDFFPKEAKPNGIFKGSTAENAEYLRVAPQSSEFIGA

SMILES | IC50 (EGFR L858R/T790M/C797S; [1]) [nM] | IC50 (EGFR L858R/C797S; [2]) [nM] | IC50 (EGFR Del19/T790M/C797S; [3]) [nM] | IC50 (EGFR Del19/C797S; [4]) [nM] | IC50 (EGFR wildtype (WT); IC50 WT (nM), 100 μM ATP) [nM] | IC50 (EGFR L858R/T790M/C797S; [10]) [nM] | IC50 (EGFR L858R/C797S; [11]) [nM] | IC50 (EGFR Del19/T790M/C797S; [12]) [nM] | IC50 (EGFR Del19/C797S; [13]) [nM] | IC50 (EGFR wildtype (WT); [14]) [nM] | also measured
CC1(C)CN(c2cc(Nc3ccnc(-c4cnn(S(=O)(=O)C5CC5)c4)n3)ncc2C#Cc2ccsc2)CCC1O (stereo not shown) [Example 229, 1-(2-((2-(1-(Cyclopropylsulfonyl)-1H-pyrazol-4-yl)pyrimidin-4-yl)amino)-5-(thiophen-3-ylethynyl)pyridin-4-yl)-3,3-dimethylpiperidin-4-ol] | 26.9 | 368 | 8.9 | 175 | > 10000 | – | – | – | – | – | –
O=S(=O)(C1CC1)n1cc(-c2nccc(Nc3cc(N[C@H]4CC[C@@H](O)CC4)c(C#Cc4cnn(C(F)(F)F)c4)cn3)n2)cn1 [Example 102, (1s,4s)-4-((2-((2-(1-(Cyclopropylsulfonyl)-1H-pyrazol-4-yl)pyrimidin-4-yl)amino)-5-((1-(trifluoromethyl)-1H-pyrazol-4-yl)ethynyl)pyridin-4-yl)amino)cyclohexan-1-ol] | 7.6 | 1030 | 2.7 | 26.6 | > 10000 | – | – | – | – | – | IC50 (EGFR L858R/T790M/C797S; [5]): 2.1 nM; IC50 (EGFR L858R/C797S; [6]): 15.7 nM; IC50 (EGFR Del19/T790M/C797S; [7]): 2.8 nM; IC50 (EGFR Del19/C797S; [8]): 13.9 nM; IC50 (EGFR wildtype (WT); [9]): 186 nM
Cn1cc(C#Cc2cnc(Nc3ccnc(-c4cnn(S(=O)(=O)C5CC5)c4)n3)cc2N2CCC(CO)C2)cn1 (stereo not shown) [Example 33, (1-(2-((2-(1-(Cyclopropylsulfonyl)-1H-pyrazol-4-yl)pyrimidin-4-yl)amino)-5-((1-methyl-1H-pyrazol-4-yl)ethynyl)pyridin-4-yl)pyrrolidin-3-yl)methanol] | 3.7 | 152 | 1.9 | 10.2 | > 10000 | – | – | – | – | – | –
O=S(=O)(C1CC1)n1cc(-c2nccc(Nc3cc(N[C@H]4CC[C@@H](O)CC4)c(C#Cc4ccc(CN5CCOCC5)cn4)cn3)n2)cn1 [Example 184, (1s,4s)-4-((2-((2-(1-(Cyclopropylsulfonyl)-1H-pyrazol-4-yl)pyrimidin-4-yl)amino)-5-((5-(morpholinomethyl)pyridin-2-yl)ethynyl)pyridin-4-yl)amino)cyclohexan-1-ol] | 2.1 | 94.1 | 1.5 | 3.5 | > 10000 | 0.2 | 3.2 | 0.4 | 2.3 | 11.7 | –
Cn1cc(C#Cc2cnc(Nc3ccnc(-c4cnn(S(=O)(=O)C5CC5)c4)n3)cc2N[C@H]2CC[C@@H](O)CC2)c(C(F)(F)F)n1 [Example 92, (1s,4s)-4-((2-((2-(1-(Cyclopropylsulfonyl)-1H-pyrazol-4-yl)pyrimidin-4-yl)amino)-5-((1-methyl-3-(trifluoromethyl)-1H-pyrazol-4-yl)ethynyl)pyridin-4-yl)amino)cyclohexan-1-ol] | 11.3 | 80.7 | 5.5 | 67.5 | > 10000 | – | – | – | – | – | –
C=CC#Cc1cnc(Nc2ccnc(-c3cnn(S(=O)(=O)C4CC4)c3)n2)cc1N1CCC(C)(CO)CC1 [Example 277, (1-(5-(But-3-en-1-yn-1-yl)-2-((2-(1-(cyclopropylsulfonyl)-1H-pyrazol-4-yl)pyrimidin-4-yl)amino)pyridin-4-yl)-4-methylpiperidin-4-yl)methanol] | 1.8 | 33.7 | 0.8 | 3.3 | > 10000 | 0.3 | 2.5 | 0.6 | 1.4 | 11.4 | –
C[C@]1(O)CC[C@@H](Nc2cc(Nc3ccnc(-c4cnn(S(=O)(=O)C5CC5)c4)n3)ncc2C#Cc2ccc(CN3CCOCC3)cc2)CC1 [Example 158, (1s,4s)-4-((2-((2-(1-(Cyclopropylsulfonyl)-1H-pyrazol-4-yl)pyrimidin-4-yl)amino)-5-((4-(morpholinomethyl)phenyl)ethynyl)pyridin-4-yl)amino)-1-methylcyclohexan-1-ol] | – | – | – | – | – | 2.5 | 15.3 | 6.2 | 18.3 | 523 | IC50 (EGFR L858R/T790M/C797S; read-out: IC50 L858R/T790M/C797S (nM), 100 μM ATP): 8.4 nM; IC50 (EGFR L858R/C797S; read-out: IC50 L858R/C797S (nM), 100 μM ATP): 809 nM; IC50 (EGFR Del19/T790M/C797S; read-out: IC50 Del19/T790M/C797S (nM), 100 μM ATP): 6.8 nM; IC50 (EGFR Del19/C797S; read-out: IC50 Del19/C797S (nM), 100 μM ATP): 131 nM; IC50 (EGFR wildtype (WT); read-out: IC50 WT (nM), 100 μM ATP): > 10000 nM
Cn1cc(C#Cc2cnc(Nc3ccnc(-c4cnn(S(=O)(=O)C5CC5)c4)n3)cc2N2CCC(F)CC2)cn1 [Example 8, 2-(1-(Cyclopropylsulfonyl)-1H-pyrazol-4-yl)-N-(4-(4-fluoropiperidin-1-yl)-5-((1-methyl-1H-pyrazol-4-yl)ethynyl)pyridin-2-yl)pyrimidin-4-amine] | 2.2 | 33.2 | 3.1 | 9.5 | > 10000 | – | – | – | – | – | –

Second part, led by results:

IC50 (EGFR L858R/T790M/C797S; [1]) [nM] | IC50 (EGFR L858R/C797S; [2]) [nM] | IC50 (EGFR Del19/T790M/C797S; [3]) [nM] | IC50 (EGFR Del19/C797S; [4]) [nM] | IC50 (EGFR wildtype (WT); IC50 WT (nM), 100 μM ATP) [nM] | IC50 (EGFR L858R/T790M/C797S; [10]) [nM] | IC50 (EGFR L858R/C797S; [11]) [nM] | IC50 (EGFR Del19/T790M/C797S; [12]) [nM] | IC50 (EGFR Del19/C797S; [13]) [nM] | IC50 (EGFR wildtype (WT); [14]) [nM] | SMILES | also measured
0.5 | 1.3 | 0.7 | 0.8 | 212 | – | – | – | – | – | CN(C)CCCn1cc(C#Cc2cnc(Nc3ccnc(-c4cnn(S(=O)(=O)C5CC5)c4)n3)cc2N2CCC(C)(CO)CC2)cn1 [Example 120, (1-(2-((2-(1-(Cyclopropylsulfonyl)-1H-pyrazol-4-yl)pyrimidin-4-yl)amino)-5-((1-(3-(dimethylamino)propyl)-1H-pyrazol-4-yl)ethynyl)pyridin-4-yl)-4-methylpiperidin-4-yl)methanol] | IC50 (EGFR L858R/T790M/C797S; [5]): 0.3 nM; IC50 (EGFR L858R/C797S; [6]): 0.3 nM; IC50 (EGFR Del19/T790M/C797S; [7]): 0.7 nM; IC50 (EGFR Del19/C797S; [8]): 0.5 nM; IC50 (EGFR wildtype (WT); [9]): 1.6 nM
1.5 | 288 | 0.9 | 10.3 | > 10000 | 1.1 | 13.5 | 0.9 | 3.3 | 26.8 | CN(C)CC1(F)CCN(c2cc(Nc3ccnc(-c4cnn(S(=O)(=O)C5CC5)c4)n3)ncc2C#Cc2cnn(C3CC3)c2)CC1 [Example 300, N-(5-((1-Cyclopropyl-1H-pyrazol-4-yl)ethynyl)-4-(4-((dimethylamino)methyl)-4-fluoropiperidin-1-yl)pyridin-2-yl)-2-(1-(cyclopropylsulfonyl)-1H-pyrazol-4-yl)pyrimidin-4-amine] | –
0.3 | 1 | 0.4 | 0.6 | 143 | – | – | – | – | – | CN(C)CCn1cc(C#Cc2cnc(Nc3ccnc(-c4cnn(S(=O)(=O)C5CC5)c4)n3)cc2N2CCC(C)(CO)CC2)cn1 [Example 116, (1-(2-((2-(1-(Cyclopropylsulfonyl)-1H-pyrazol-4-yl)pyrimidin-4-yl)amino)-5-((1-(2-(dimethylamino)ethyl)-1H-pyrazol-4-yl)ethynyl)pyridin-4-yl)-4-methylpiperidin-4-yl)methanol] | IC50 (EGFR L858R/T790M/C797S; [5]): 0.2 nM; IC50 (EGFR L858R/C797S; [6]): 0.2 nM; IC50 (EGFR Del19/T790M/C797S; [7]): 0.3 nM; IC50 (EGFR Del19/C797S; [8]): 0.3 nM; IC50 (EGFR wildtype (WT); [9]): 1 nM
1.3 | 51.2 | 0.7 | 8.3 | 9220 | – | – | – | – | – | CC1(CO)CCN(c2cc(Nc3ccnc(-c4cnn(S(=O)(=O)C5CC5)c4)n3)ncc2C#CC2CCN(S(=O)(=O)C3CC3)C2)CC1 (stereo not shown) [Example 395, (1-(2-((2-(1-(Cyclopropylsulfonyl)-1H-pyrazol-4-yl)pyrimidin-4-yl)amino)-5-((1-(cyclopropylsulfonyl)pyrrolidin-3-yl)ethynyl)pyridin-4-yl)-4-methylpiperidin-4-yl)methanol] | IC50 (EGFR L858R/T790M/C797S; Km ATP, read-out: IC50 L858R/T790M/C797S (nM), Km ATP): 0.3 nM; IC50 (EGFR L858R/C797S; Km ATP, read-out: IC50 L858R/C797S (nM), Km ATP): 2.7 nM; IC50 (EGFR Del19/T790M/C797S; Km ATP, read-out: IC50 Del19/T790M/C797S (nM), Km ATP): 0.6 nM; IC50 (EGFR Del19/C797S; Km ATP, read-out: IC50 Del19/C797S (nM), Km ATP): 6.6 nM; IC50 (EGFR wildtype (WT); Km ATP, read-out: IC50 WT (nM), Km ATP): 16.9 nM
